# Assay results: ChEMBL document CHEMBL1201862, “PubChem BioAssay data set” (2004)
#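 In this assay, cells in 96-well plates receive the compound at five concentrations for 48 hours. Endpoints are linearly interpolated between the surrounding concentrations. At the GI50, growth is halved.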 Activity calls are given as the source filed them. Rule as the data show it: active = GI50 up to about 1.1 µM and inactive = higher.
# Assays:
# Experiment in all cases: NCI anticancer screen, dose series, 48 h
# EKVX = tested on: EKVX
# TK-10 = tested on: TK-10
# T47D = tested on: T47D
# CCRF-CEM = tested on: CCRF-CEM
# MDA-MB-435 = tested on: MDA-MB-435
# SNB-75 = tested on: SNB-75
# NCI-H226 = tested on: NCI-H226
# SK-MEL-2 = tested on: SK-MEL-2
# HCC 2998 = tested on: HCC 2998
# SN12C = tested on: SN12C
# SNB-19 = tested on: SNB-19
# SF-268 = tested on: SF-268
# A498 = tested on: A498
# OVCAR-5 = tested on: OVCAR-5
# OVCAR-3 = tested on: OVCAR-3
# HOP-62 = tested on: HOP-62
# LOX IMVI = tested on: LOX IMVI
# U-251 = tested on: U-251
# IGROV-1 = tested on: IGROV-1
SMILES,GI50 (EKVX),GI50 (TK-10),GI50 (T47D),GI50 (CCRF-CEM),GI50 (MDA-MB-435),GI50 (SNB-75),GI50 (NCI-H226),GI50 (SK-MEL-2),GI50 (HCC 2998),GI50 (SN12C),GI50 (SNB-19),GI50 (SF-268),GI50 (A498),GI50 (OVCAR-5),GI50 (OVCAR-3),GI50 (HOP-62),GI50 (LOX IMVI),GI50 (U-251),GI50 (IGROV-1)
COC(=O)[C@]1(C)CCC[C@@]2(C)[C@@H]3C[C@@H]4[C@H]5C[C@@]3(CC[C@@H]21)C[C@@]45C,15.6 µM (inactive),15.1 µM (inactive),23.2 µM (inactive),18 µM (inactive),18.3 µM (inactive),17.7 µM (inactive),15.8 µM (inactive),16.4 µM (inactive),17.3 µM (inactive),19.2 µM (inactive),13.9 µM (inactive),17.9 µM (inactive),17.2 µM (inactive),18 µM (inactive),18.2 µM (inactive),17.8 µM (inactive),19.7 µM (inactive),24 µM (inactive),19.3 µM (inactive)
On1c(-c2ccccc2)nc2ccccc2c1=S,10.3 µM (inactive),> 100 µM (inactive),3.37 µM (inactive),1.55 µM (inactive),7.43 µM (inactive),19.3 µM (inactive),9.16 µM (inactive),8.75 µM (inactive),2.4 µM (inactive),7.13 µM (inactive),12.3 µM (inactive),3.47 µM (inactive),42.2 µM (inactive),> 100 µM (inactive),4.39 µM (inactive),7.35 µM (inactive),0.632 µM (active),4.95 µM (inactive),0.493 µM (active)
COc1cc(C2c3cc4c(cc3OC(N3CCCCC3)C2C)OCO4)cc(OC)c1O (centres undefined),26.1 µM (inactive),16.4 µM (inactive),11.7 µM (inactive),3.4 µM (inactive),2.21 µM (inactive),2.96 µM (inactive),21.9 µM (inactive),7.73 µM (inactive),12.2 µM (inactive),11.4 µM (inactive),16.3 µM (inactive),13.8 µM (inactive),10.9 µM (inactive),20.1 µM (inactive),6.12 µM (inactive),6.78 µM (inactive),9.77 µM (inactive),9.71 µM (inactive),9.98 µM (inactive)
O=C(O)c1[nH]c2c([N+](=O)[O-])cc([N+](=O)[O-])cc2c1C(=O)O,> 100 µM (inactive),> 100 µM (inactive),> 100 µM (inactive),> 100 µM (inactive),52.1 µM (inactive),> 100 µM (inactive),> 100 µM (inactive),> 100 µM (inactive),> 100 µM (inactive),> 100 µM (inactive),> 100 µM (inactive),> 100 µM (inactive),> 100 µM (inactive),> 100 µM (inactive),> 100 µM (inactive),> 100 µM (inactive),> 100 µM (inactive),> 100 µM (inactive),> 100 µM (inactive)
CC[C@@H](/C=C\CCC1(C[C@@H](N)CCC=C(C)C)OCCO1)O[Si](C(C)C)(C(C)C)C(C)C,15.6 µM (inactive),17.1 µM (inactive),23.2 µM (inactive),11.6 µM (inactive),18.4 µM (inactive),18.9 µM (inactive),17.4 µM (inactive),17.3 µM (inactive),13 µM (inactive),17.3 µM (inactive),18.5 µM (inactive),19.1 µM (inactive),18.2 µM (inactive),17.2 µM (inactive),18.7 µM (inactive),22 µM (inactive),4.97 µM (inactive),19.9 µM (inactive),15.8 µM (inactive)
Cc1ccsc1/C=N/Nc1ccc2ccccc2n1,20.3 µM (inactive),19.9 µM (inactive),> 100 µM (inactive),27.5 µM (inactive),56.5 µM (inactive),32.9 µM (inactive),35.9 µM (inactive),25.2 µM (inactive),24.1 µM (inactive),> 100 µM (inactive),39.4 µM (inactive),32.1 µM (inactive),7.76 µM (inactive),> 100 µM (inactive),10.4 µM (inactive),19.8 µM (inactive),24.2 µM (inactive),49 µM (inactive),8.26 µM (inactive)
C=C(C)C(=O)OC1CC2(C)OC(=CC2=O)C(C)CC2OC(=O)C(=C)C12 (centres undefined),7.76 µM (inactive),7.41 µM (inactive),4.57 µM (inactive),0.839 µM (active),4.13 µM (inactive),20.2 µM (inactive),19.1 µM (inactive),14.3 µM (inactive),10.3 µM (inactive),5.85 µM (inactive),21.4 µM (inactive),26.7 µM (inactive),15.2 µM (inactive),10.4 µM (inactive),5.15 µM (inactive),19.2 µM (inactive),2.94 µM (inactive),16.5 µM (inactive),8.85 µM (inactive)
C#C/C=C/CC1OC(C(Br)CC)CC(Br)C2CC1O2 (centres undefined),40.6 µM (inactive),> 100 µM (inactive),75.3 µM (inactive),38.6 µM (inactive),86.5 µM (inactive),52.1 µM (inactive),> 100 µM (inactive),> 100 µM (inactive),56 µM (inactive),63.7 µM (inactive),> 100 µM (inactive),> 100 µM (inactive),> 100 µM (inactive),> 100 µM (inactive),38.5 µM (inactive),85.7 µM (inactive),1.71 µM (inactive),78 µM (inactive),3.25 µM (inactive)
COc1ccc2c(c1)OC(c1cccnc1)C(c1ccccc1)C2=O (centres undefined),> 100 µM (inactive),> 100 µM (inactive),> 100 µM (inactive),> 100 µM (inactive),> 100 µM (inactive),> 100 µM (inactive),98.9 µM (inactive),> 100 µM (inactive),> 100 µM (inactive),> 100 µM (inactive),66.7 µM (inactive),61 µM (inactive),> 100 µM (inactive),> 100 µM (inactive),> 100 µM (inactive),25.9 µM (inactive),> 100 µM (inactive),43.8 µM (inactive),> 100 µM (inactive)
Cc1cc(C)c2c(n1)S(=O)(=O)N(CCCN1CCN(c3cccc(C(F)(F)F)c3)CC1)c1c-2nn(C)c1C,> 100 µM (inactive),> 100 µM (inactive),> 100 µM (inactive),66.7 µM (inactive),40.5 µM (inactive),> 100 µM (inactive),30.7 µM (inactive),> 100 µM (inactive),> 100 µM (inactive),97.5 µM (inactive),> 100 µM (inactive),> 100 µM (inactive),> 100 µM (inactive),> 100 µM (inactive),67.1 µM (inactive),> 100 µM (inactive),52.6 µM (inactive),> 100 µM (inactive),55.2 µM (inactive)
COc1ccc(N2C=Nn3c(nc4sc5c(c4c3=O)CCCC5)C2)cc1,73.6 µM (inactive),77.1 µM (inactive),> 100 µM (inactive),> 100 µM (inactive),> 100 µM (inactive),8.77 µM (inactive),84.3 µM (inactive),21.3 µM (inactive),47.8 µM (inactive),> 100 µM (inactive),28.2 µM (inactive),19.2 µM (inactive),14 µM (inactive),32.4 µM (inactive),> 100 µM (inactive),3.09 µM (inactive),33.6 µM (inactive),16.7 µM (inactive),> 100 µM (inactive)
